According to patent US10143650B2, “Dispersion intended for encapsulating an active product and associated use” (CAPSUM, priority 2012, dated 2018):

Tests used:
[1] = partition coefficient of the active product between membrane phase and internal phase (octanol/water) and ratio R2 over membrane viscosity; type: physicochemical; settings: concentration in octanol over concentration in water
Procedure: The ratio of the partition coefficient Cp of the active product 20 between the membrane 18 and the internal drop 16 is obtained by determining the partition coefficient of this active product 20 between a homologous phase to the intermediate phase forming the membrane 18 and a homologous phase to the internal phase forming the internal drop 16. The ratio Cp is calculated with the following equation: Cp=K=[active in the membrane phase]/[active in the internal phase].
In particular, when the internal drop 16 is aqueous, and when the membrane 18 is oily, the ratio Cp may be estimated by using log P=log K with: Cp=K=[active in octanol]/[active in water].
Further, the value of log P (=log (K)) may be simply evaluated by means of easily accessible molecular modeling software packages on the Internet such as for example on www.molispiration.com, www.vcclab.org/lab/alogps/start.html.
Experimental determination is possible with the following method: an accurate amount of the active is weighed and solubilized in one of the two water or octanol phases. Two equivalent volumes of both phases are then put into contact with stirring. The concentrations of the active product in each of both phases are then measured after thermodynamic equilibrium of the system. This concentration measurement may for example be carried out by directly measuring the absorbance, if the molecule absorbs light, or by liquid chromatography. This measurement is for example carried out at 22° C.
The coefficient K is then determined experimentally by the ratio of the concentration of the active in octanol over that in water.

[2] = leakage of encapsulated active product into the continuous phase (optical absorbance versus time); type: physicochemical
Excerpt: FIG. 4 is a graph illustrating the absorbance in the continuous phase in a dispersion according to the invention, wherein an active absorbent product was encapsulated in the dispersed phase;
FIG. 5 is a view similar to FIG. 4 for a dispersion according to the invention containing another absorbent active product; and
FIGS. 4 and 5 respectively illustrate the ratio of optical absorbance in the continuous phase 14 versus time for respectively the dispersion of the first example containing dextran, and for the dispersion of the second example containing bovine serum albumin.

[3] = absorbance in continuous phase, after more than one week at 50° C., R1 0.38

| partition coefficient (K, Cp) of the active product [1] | leakage of active product from the dispersed bodies ([2]; R2 equal to 3.05, time and temperature not stated) | Molecule | leakage of active product from the dispersed bodies [2, 3] |
| --- | --- | --- | --- |
| less than 10^−2 | – | dextran | no leakage |
| 70.8 | leakage is observed | CCN(CC)c1ccc2c(-c3ccccc3C(=O)O)c3ccc(=[N+](CC)CC)cc-3oc2c1.[Cl-] [Rhodamine B] | – |

| Molecule | partition coefficient (K, Cp) of the active product [1] | leakage of active product from the dispersed bodies ([2]; R2 equal to 3.05, time and temperature not stated) | leakage of active product from the dispersed bodies [2, 3] |
| --- | --- | --- | --- |
| bovine serum albumin | less than 10^−3 | – | no leakage |
